Assay results as given in patent US8153785B2, “Stabilizing ligands for regulation of protein function” (Cheminpharma LLC, priority 2009, dated 2012).

Each molecule was assayed against T1, L106-tsLuc (FKBP L106P destabilizing domain fused to luciferase) in HCT116 cells (Homo sapiens, UniProt P62942, F37V) (assay: Luciferase stabilization assay in HCT116 cells stably transfected with L106-tsLuc). Conditions: 24 hour incubation, 3-fold dilutions, 10 μM to 12 nM, BrightGlo readout, read-out: luciferase activity, expressed in IC50 values.
T1 construct: expressed in transfected cells; host or cells: HCT116
Type: cell-based
Method: The compounds were assayed for their ability to bind to the destabilizing domain of the protein according the following procedure:
HCT116 cells stably transfected with L106-tsLuc were cultured in DMEM media containing 10% fetal bovine serum. 7,000 cells/well were seeded in 100 μL of DMEM/10% FBS media in a 96-well plate and incubated overnight at 37° C. in a humidified, 5% CO2 incubator. Media was replaced with fresh 100 μL of fresh DMEM/10% FBS media containing various concentrations of Shield-1, and the compounds of Example 6 (Ic), and Example 9 (Id) Compounds were added at 3-fold dilutions, concentrations ranging from 10 μM to 12 nM. After 24 hour incubation with the compounds at 37° C. in a humidified, 5% CO2 incubator, luciferase activity was measured in a luminometer after the addition of 100 μL/well BrightGlo reagent (Promega).

T1 sequence (P62942 with tags, fused parts or gaps F37V limits assumed): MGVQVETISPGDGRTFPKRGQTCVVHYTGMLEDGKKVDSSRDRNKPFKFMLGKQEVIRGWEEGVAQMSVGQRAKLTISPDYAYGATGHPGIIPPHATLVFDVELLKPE

| IC50 [nM] | SMILES |
| --- | --- |
| < 10 | CC[C@H](C(=O)N1CCCC[C@H]1C(=O)OC(CCc1ccc(OC)c(OC)c1)c1cccc(OCCN2CCOCC2)c1)c1cc(OC)c(OC)c(OC)c1 (stereo partly drawn) [Shield-1, reference compound] |
| < 100 | CC[C@H](C(=O)N1CCCC[C@H]1C(=O)N[C@H](CCc1ccc(OC)c(OC)c1)c1cccc(OCCN2CCOCC2)c1)c1cc(OC)c(OC)c(OC)c1 [Example 6 (Ic)] |
| < 10000 | CCN(C(=O)N1CCCC[C@H]1C(=O)N[C@H](CCc1ccc(OC)c(OC)c1)c1cccc(OCCN2CCOCC2)c1)c1ccccc1 [Example 9 (Id)] |
